Reference: patent US7902252B2, “Inhibitors of D-amino acid oxidase” (Sepracor, Inc., priority 2007, dated 2011)

biological target: Human DAAO (Homo sapiens, UniProt P14920); experiment: D-Amino Acid Oxidase enzyme assay (D-serine, horseradish peroxidase/Amplex Red coupled fluorescence); format: biochemical; details: D-serine 5 mM, pH 7.4
Procedure: DAAO enzyme activity was measured using the substrate D-serine at its Michaelis-Menton Km of 5 mM. The rate of oxidation is measured as a rate of production of hydrogen peroxide, which was detected using the enzyme horseradish peroxidase (Sigma cat. No. P-8375). This coupled reaction uses the enzyme substrate Amplex Red (Molecular Probes), which is converted to the fluorescent reaction product, resorufin (excitation 530-560 nm; emission ˜590 nm). Although DAAO has a higher pH optimum, all reagents were prepared in 50 mM sodium phosphate buffer at pH 7.4 and inhibition curves were generated at this pH.
The final concentrations of components in 200 μl total volume per well (black clear-bottom 96-well plate, Costar) were:
(a) Horseradish peroxidase: 4 Units per mL
(d) Amplex Red reagent: 50 uM
The reactions were initiated by addition of DAAO enzyme and the fluorescence was monitored. H2O2 was added at 16 uM final concentration to a control well on each plate to test for compound interference with a coupled enzyme. Inhibition curves were generated in the presence of varying concentrations of the inhibitor and IC50 values were calculated for each inhibitor.

Human DAAO, sequence (P14920 whole entry): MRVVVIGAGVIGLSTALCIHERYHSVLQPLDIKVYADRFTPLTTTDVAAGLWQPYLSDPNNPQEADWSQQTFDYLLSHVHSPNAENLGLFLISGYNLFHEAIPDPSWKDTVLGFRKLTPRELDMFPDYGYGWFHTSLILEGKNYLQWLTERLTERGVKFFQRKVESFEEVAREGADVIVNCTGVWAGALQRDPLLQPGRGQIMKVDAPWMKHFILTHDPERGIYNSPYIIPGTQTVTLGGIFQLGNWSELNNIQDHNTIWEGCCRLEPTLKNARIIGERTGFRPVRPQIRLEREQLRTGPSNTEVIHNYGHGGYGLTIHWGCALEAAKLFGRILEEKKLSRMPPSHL

SMILES | IC50 [µM]
O=C(O)c1cc2c([nH]1)C(=Cc1ccccc1)CC2 (mixture of isomers) [Compound 25, (E/Z)-6-benzylidene-1,4,5,6-tetrahydrocyclopenta[b]pyrrole-2-carboxylic acid] | ≤ 100
CC1CCc2[nH]c(C(=O)O)cc21 (racemic) [Compound 4, 4-methyl-1,4,5,6-tetrahydrocyclopenta[b]pyrrole-2-carboxylic acid] | ≤ 1
CCCC1CCc2[nH]c(C(=O)O)cc21 (racemic) [Compound 7, 4-propyl-1,4,5,6-tetrahydrocyclopenta[b]pyrrole-2-carboxylic acid] | ≤ 0.1
O=C(O)c1cc2c([nH]1)CCC2Cc1ccc(Cl)cc1 (racemic) [Compound 14, 4-(4-chlorobenzyl)-1,4,5,6-tetrahydrocyclopenta[b]pyrrole-2-carboxylic acid] | ≤ 0.1
O=C(O)c1cc2c([nH]1)CCC2CCc1ccccc1 (racemic) [Compound 18, 4-phenethyl-1,4,5,6-tetrahydrocyclopenta[b]pyrrole-2-carboxylic acid] | ≤ 1
O=C(O)c1cc2c([nH]1)CCC2Cc1ccc(F)c(F)c1 (racemic) [Compound 42, 4-(3,4-difluorobenzyl)-1,4,5,6-tetrahydrocyclopenta[b]pyrrole-2-carboxylic acid] | ≤ 0.1
O=C(O)c1cc2c([nH]1)CCC2Cc1ccc(F)cc1F (racemic) [Compound 45, 4-(2,4-difluorobenzyl)-1,4,5,6-tetrahydrocyclopenta[b]pyrrole-2-carboxylic acid] | ≤ 0.1
O=C(O)c1cc2c([nH]1)CCC2Cc1ccc(F)c(Cl)c1 (racemic) [Compound 48, 4-(3-chloro-4-fluorobenzyl)-1,4,5,6-tetrahydrocyclopenta[b]pyrrole-2-carboxylic acid] | ≤ 0.1
Cc1cc(F)ccc1CC1CCc2[nH]c(C(=O)O)cc21 (racemic) [Compound 51, 4-(4-fluoro-2-methylbenzyl)-1,4,5,6-tetrahydrocyclopenta[b]pyrrole-2-carboxylic acid] | ≤ 0.1
O=C(O)c1cc2c([nH]1)CCC2Cc1ccc(Cl)c(Cl)c1 (racemic) [Compound 57, 4-(3,4-dichlorobenzyl)-1,4,5,6-tetrahydrocyclopenta[b]pyrrole-2-carboxylic acid] | ≤ 0.1
O=C(O)c1cc2c([nH]1)CCC2Cc1ccc(Br)cc1 (racemic) [Compound 60, 4-(4-bromobenzyl)-1,4,5,6-tetrahydrocyclopenta[b]pyrrole-2-carboxylic acid] | ≤ 0.1
O=C(O)c1cc2c([nH]1)CCC2Cc1cccc(Br)c1 (racemic) [Compound 63, 4-(3-bromobenzyl)-1,4,5,6-tetrahydrocyclopenta[b]pyrrole-2-carboxylic acid] | ≤ 0.1
COc1cccc(CC2CCc3[nH]c(C(=O)O)cc32)c1 (racemic) [Compound 66, 4-(3-methoxybenzyl)-1,4,5,6-tetrahydrocyclopenta[b]pyrrole-2-carboxylic acid] | ≤ 0.1
O=C(O)c1cc2c([nH]1)CCC2Cc1cccc(-c2ccco2)c1 (racemic) [Compound 87, 4-(3-(furan-2-yl)benzyl)-1,4,5,6-tetrahydrocyclopenta[b]pyrrole-2-carboxylic acid] | ≤ 100
O=C(O)c1cc2c([nH]1)CCC2Cc1cccc(-c2ccc[nH]2)c1 (racemic) [Compound 91, 4-(3-(1H-pyrrol-2-yl)benzyl)-1,4,5,6-tetrahydrocyclopenta[b]pyrrole-2-carboxylic acid] | ≤ 0.1
O=C(O)c1cc2c([nH]1)CCC2c1cccc(F)c1 (racemic) [Compound 94, 4-(3-fluorophenyl)-1,4,5,6-tetrahydrocyclopenta[b]pyrrole-2-carboxylic acid] | ≤ 0.1
O=C(O)c1cc2c([nH]1)CCC2c1cc(F)cc(F)c1 (racemic) [Compound 98, 4-(3,5-difluorophenyl)-1,4,5,6-tetrahydrocyclopenta[b]pyrrole-2-carboxylic acid] | ≤ 1
O=C(O)c1cc2c([nH]1)C(c1ccc(-c3ccccc3)cc1)CC2 (racemic) [Compound 118, 6-(biphenyl-4-yl)-1,4,5,6-tetrahydrocyclopenta[b]pyrrole-2-carboxylic acid] | ≤ 1
O=C(O)c1cc2c([nH]1)C(Cc1cccc(Cl)c1)CC2 (racemic) [Compound 121, 6-(3-chlorobenzyl)-1,4,5,6-tetrahydrocyclopenta[b]pyrrole-2-carboxylic acid] | ≤ 0.1
O=C(O)c1cc2c([nH]1)C(Cc1cccc(Br)c1)CC2 (racemic) [Compound 125, 6-(3-bromobenzyl)-1,4,5,6-tetrahydrocyclopenta[b]pyrrole-2-carboxylic acid] | ≤ 0.1

SMILES | IC50 [µM]
COc1cccc(CC2CCc3cc(C(=O)O)[nH]c32)c1 (racemic) [Compound 129, 6-(3-methoxybenzyl)-1,4,5,6-tetrahydrocyclopenta[b]pyrrole-2-carboxylic acid] | ≤ 0.1
O=C(O)c1cc2c([nH]1)C(CCCc1ccccc1)CC2 (racemic) [Compound 134, 6-(3-phenylpropyl)-1,4,5,6-tetrahydrocyclopenta[b]pyrrole-2-carboxylic acid] | ≤ 1
C[C@H]1[C@H]2Cc3[nH]c(C(=O)O)cc3[C@@H]12 (racemic) [Compound 141, ±(1S,1aS,5aR)-1-methyl-1a,4,5,5a-tetrahydro-1H-4-aza-cyclopropa[α]pentalene-3-carboxylic acid] | ≤ 0.1
O=C(O)c1cc2c([nH]1)C[C@@H]1[C@H](CCc3ccccc3)[C@H]21 (racemic) [Compound 143, ±(1S,1aS,5aR)-1-phenethyl-1a,4,5,5a-tetrahydro-1H-4-aza-cyclopropa[α]pentalene-3-carboxylic acid] | ≤ 0.1
O=C(O)c1cc2c([nH]1)C[C@@H]1[C@@H](c3ccccc3)[C@H]21 (racemic) [Compound 144, ±(1R,1aR,5aR)-1-phenyl-1a,4,5,5a-tetrahydro-1H-4-aza-cyclopropa[α]pentalene-3-carboxylic acid] | ≤ 100
CC1CCc2[nH]c(C(=O)O)cc21 (single isomer, unassigned) [Compound 5, 4-methyl-1,4,5,6-tetrahydrocyclopenta[b]pyrrole-2-carboxylic acid] | ≤ 1
CC1CCc2[nH]c(C(=O)O)cc21 (single isomer, unassigned) [Compound 6, 4-methyl-1,4,5,6-tetrahydrocyclopenta[b]pyrrole-2-carboxylic acid] | ≤ 100
CCCC1CCc2[nH]c(C(=O)O)cc21 (single isomer, unassigned) [Compound 9, 4-propyl-1,4,5,6-tetrahydrocyclopenta[b]pyrrole-2-carboxylic acid] | ≤ 100
O=C(O)c1cc2c([nH]1)CCC2Cc1ccc(Cl)cc1 (single isomer, unassigned) [Compound 15, 4-(4-chlorobenzyl)-1,4,5,6-tetrahydrocyclopenta[b]pyrrole-2-carboxylic acid] | ≤ 0.1
O=C(O)c1cc2c([nH]1)CCC2Cc1ccc(Cl)cc1 (single isomer, unassigned) [Compound 16, 4-(4-chlorobenzyl)-1,4,5,6-tetrahydrocyclopenta[b]pyrrole-2-carboxylic acid] | ≤ 100
O=C(O)c1cc2c([nH]1)CCC2CCc1ccccc1 (single isomer, unassigned) [Compound 19, 4-phenethyl-1,4,5,6-tetrahydrocyclopenta[b]pyrrole-2-carboxylic acid] | ≤ 1
O=C(O)c1cc2c([nH]1)CCC2CCc1ccccc1 (single isomer, unassigned) [Compound 20, 4-phenethyl-1,4,5,6-tetrahydrocyclopenta[b]pyrrole-2-carboxylic acid] | ≤ 100
O=C(O)c1cc2c([nH]1)C(CCc1ccccc1)CC2 (single isomer, unassigned) [Compound 28, 6-phenethyl-1,4,5,6-tetrahydrocyclopenta[b]pyrrole-2-carboxylic acid] | ≤ 1
O=C(O)c1cc2c([nH]1)C(CCc1ccccc1)CC2 (single isomer, unassigned) [Compound 29, 6-phenethyl-1,4,5,6-tetrahydrocyclopenta[b]pyrrole-2-carboxylic acid] | ≤ 100
O=C(O)c1cc2c([nH]1)CCC2Cc1ccc(F)cc1 (single isomer, unassigned) [Compound 40, 4-(4-fluorobenzyl)-1,4,5,6-tetrahydrocyclopenta[b]pyrrole-2-carboxylic acid] | ≤ 0.1
O=C(O)c1cc2c([nH]1)CCC2Cc1ccc(F)cc1 (single isomer, unassigned) [Compound 41, 4-(4-fluorobenzyl)-1,4,5,6-tetrahydrocyclopenta[b]pyrrole-2-carboxylic acid] | ≤ 1
O=C(O)c1cc2c([nH]1)CCC2Cc1ccc(F)c(F)c1 (single isomer, unassigned) [Compound 43, 4-(3,4-difluorobenzyl)-1,4,5,6-tetrahydrocyclopenta[b]pyrrole-2-carboxylic acid] | ≤ 100
O=C(O)c1cc2c([nH]1)CCC2Cc1ccc(F)cc1F (single isomer, unassigned) [Compound 46, 4-(2,4-difluorobenzyl)-1,4,5,6-tetrahydrocyclopenta[b]pyrrole-2-carboxylic acid] | ≤ 100
Cc1cc(F)ccc1CC1CCc2[nH]c(C(=O)O)cc21 (single isomer, unassigned) [Compound 52, 4-(4-fluoro-2-methylbenzyl)-1,4,5,6-tetrahydrocyclopenta[b]pyrrole-2-carboxylic acid] | ≤ 100
